Source: article PMC9695041, “The Anti-Breast Cancer Activity of Dihydroartemisinin-5-methylisatin Hybrids Tethered via Different Carbon Spacers” (Molecules, 2022)

Assays:
[1] = test system: MCF-7 breast cancer cell line; experiment: MTT antiproliferative assay, MCF-7; type: cell-based; settings: for IC50: MCF-7, MTT assay
Procedure: (§1) The antiproliferative activity and cytotoxicity of DHA-5-methylisatin hybrids 6a–c and 7a–m against MCF-7, MDA-MB-231, MCF-7/ADR, and MDA-MB-231/ADR (Purchased from Procell) breast cancer cell lines as well as MCF-10A were assessed by 3-(4,5-dimethylthiazol-2-yl)-2,5-diphenyltetrazolium bromide (MTT) assay.
(§2) MCF-7, MDA-MB-231, MCF-7/ADR, and MDA-MB-231/ADR breast cancer cell lines (2 × 10^3) were plated in each well of a 96-well plate and were allowed to adhere and spread for 24 h. The dihydroartemisinin-5-methylisatin hybrids 6a–e and 7a–m were added to a final concentration of 100 µM, and the cells were cultured for 24 h at 37 °C. 3-(4,5-dimethyl-2-thiazolyl)-2,5-diphenyltetrazolium bromide (MTT) solution (10 µL) was added to each well, and the cultures were incubated for an additional 4 h. A further 100 µL of MTT solution was added and incubation continued overnight. The absorbance at 540 nm was determined in each well with a 96-well plate reader. The growth of the treated cells was compared with that of untreated cells.

[2] = test system: MDA-MB-231 breast cancer cell line; experiment: MTT antiproliferative assay, MDA-MB-231; type: cell-based; settings: for IC50: MDA-MB-231, MTT assay
Procedure: as §1, §2

[3] = test system: MCF-7/ADR breast cancer cell line; experiment: MTT antiproliferative assay, MCF-7/ADR; type: cell-based; settings: MCF-7/ADR (drug-resistant)
Procedure: as §1, §2

[4] = test system: MDA-MB-231/ADR breast cancer cell line; experiment: MTT antiproliferative assay, MDA-MB-231/ADR; type: cell-based; settings: MDA-MB-231/ADR (drug-resistant)
Procedure: as §1, §2

[5] = test system: normal MCF-10A breast cells
Procedure: as §1, §2

[6] = MTT cytotoxicity assay, MCF-10A; settings: human, MCF-10A normal breast cells
Procedure: as §1, §2

[7] = test system: MCF-7, MDA-MB-231, MCF-7/ADR, and MDA-MB-231/ADR breast cancer cell lines; experiment: MTT antiproliferative assay, summary over the breast cancer cell line panel; type: cell-based; settings: range over the four breast cancer cell lines; read-out: IC50 range across MCF-7, MDA-MB-231, MCF-7/ADR and MDA-MB-231/ADR
Procedure: as §1, §2

Row | Compound | IC50 [1] [µM] | IC50 [2] [µM] | IC50 [3] [µM] | IC50 [4] [µM] | IC50 [5] [µM] | IC50 ([1]; Homo sapiens, MCF7) [µM] | SI1: selectivity index IC50(MCF-10A)/IC50(MCF-7) [1] | SI2: selectivity index IC50(MCF-10A)/IC50(MDA-MB-231) [2] | IC50 ([3]; Homo sapiens, NCI/ADR-RES) [µM] | IC50 ([4]; Homo sapiens) [µM] | IC50 at 24 h [6] [µM] | IC50 ([2]; Homo sapiens) [µM] | IC50 [7] [µM]
1 | 3-((Benzyloxy)imino)-6-methyl-1-(3-(((3R,5aS,6R,8aS,9R,12R,12aR)-3,6,9-trimethyldecahydro-12H-3,12-epoxy[1,2]dioxepino[4,3-i]isochromen-10-yl)oxy)propyl)indolin-2-one [Hybrid 7l] | > 100 | > 100 | > 100 | > 100 | > 100 |  |  |  |  |  |  |  | 
2 | COc1cccc2c1C(=O)c1c(O)c3c(c(O)c1C2=O)C[C@@](O)(C(=O)CO)C[C@@H]3O[C@H]1C[C@H](N)[C@H](O)[C@H](C)O1 [ADR, Adriamycin, reference compound] |  |  |  |  |  | 18.9 | 3.64 | 14.76 | > 100 | > 100 | 68.8 |  | 
3 | Cc1ccc2c(c1)C(=NNC(N)=O)C(=O)N2CCOC1O[C@@H]2O[C@@]3(C)CC[C@H]4[C@H](C)CC[C@@H]([C@H]1C)[C@@]24OO3 (stereo partly drawn) [Hybrid 7d, 2-(5-Methyl-2-oxo-1-(2-(((3R,5aS,6R,8aS,9R,12R,12aR)-3,6,9-trimethyldecahydro-12H-3,12-epoxy[1,2]dioxepino[4,3-i]isochromen-10-yl)oxy)ethyl)indolin-3-ylidene)hydrazine-1-carboxamide] |  |  |  |  |  | 27.2 | >3.67 | >5.07 | 33.3 | 21.6 | > 100 | 19.7 | 
4 | Cc1ccc2c(c1)C(=NO)C(=O)N2CCOC1O[C@@H]2O[C@@]3(C)CC[C@H]4[C@H](C)CC[C@@H]([C@H]1C)[C@@]24OO3 (stereo partly drawn) [Hybrid 7a, 3-(Hydroxyimino)-5-methyl-1-(2-(((3R,5aS,6R,8aS,9R,12R,12aR)-3,6,9-trimethyldecahydro-12H-3,12-epoxy[1,2]dioxepino[4,3-i]isochromen-10-yl)oxy)ethyl)indolin-2-one] |  |  |  |  |  | 19.4 | >5.15 | >6.53 | 20.1 | 18.8 | > 100 | 15.3 | 15.3 to 20.1
5 | 3-(Methoxyimino)-1-(4-(((3R,5aS,6R,8aS,9R,12R,12aR)-3,6,9-trimethyldecahydro-12H-3,12-epoxy[1,2]dioxepino[4,3-i]isochromen-10-yl)oxy)butyl)indolin-2-one [Hybrid 7h] | 85.2 | 73.9 | 77.5 | 80.3 | > 100 |  |  |  |  |  |  |  | 
